In US20070092503A1, “Human alkaline sphingomyelinase and use thereof” (priority 2003, published 2007):
Each block holds one molecule with its values, some of them ahead of it.

Columns and labels:
human Alk-Smase [1] = target: T1, human Alk-Smase (Homo sapiens, UniProt Q6UWV6); experiment: Alk-Smase activity in the presence of metal ions, detergents, bile salts, glutathione; type: biochemical
T1 construct: Human Alk-Smase has now been purified from small intestinal content; from tissue; host or cells: human small intestinal (ileostomy) content
T1 sequence (Q6UWV6 22-458): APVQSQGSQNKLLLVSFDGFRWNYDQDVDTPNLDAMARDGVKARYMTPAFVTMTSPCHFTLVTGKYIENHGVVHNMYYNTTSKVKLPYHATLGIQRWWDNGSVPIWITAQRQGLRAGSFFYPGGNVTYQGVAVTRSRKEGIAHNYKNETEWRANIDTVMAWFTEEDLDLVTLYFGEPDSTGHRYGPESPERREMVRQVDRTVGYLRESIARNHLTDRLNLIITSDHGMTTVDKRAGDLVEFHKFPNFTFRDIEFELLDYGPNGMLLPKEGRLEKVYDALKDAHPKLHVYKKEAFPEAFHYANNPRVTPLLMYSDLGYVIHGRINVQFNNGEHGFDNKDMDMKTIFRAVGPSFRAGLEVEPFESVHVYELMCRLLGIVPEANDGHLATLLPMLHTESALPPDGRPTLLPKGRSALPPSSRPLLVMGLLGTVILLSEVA
Procedure: As bile salts are important factors for lipid digestion, the effects of different bile salts on human Alk-Smase were investigated. […] The activities were determined in the presence of different concentrations of bile salts.

human Alk-Smase [2] = target: T1, human Alk-Smase; experiment: as above; type: biochemical; remark: listed apart in the source
bacterial neutral Smase = conditions: reduced form
[3] = tested on: HT29 human colon cancer cells; experiment: Proliferation of HT29 colon cancer cells, WST reagent; type: cell-based; conditions: for effect on proliferation / cell growth of HT29 cells: different doses, 18 h, WST reagent; for effect on DNA synthesis of HT-29 cells: enzyme added to cells in culture
Procedure: (§1) HT29 human colon cancer cells were incubated in RMPI-1640 medium with L-glutamine, containing antibiotics and 10% (v/v) heat inactivated fetal calf serum. At the exponential growth phase, the cells were incubated with purified rat Alk-Smase at different doses for 18 h. The cell proliferation rates were measured by WST reagent. Results are Mean± SD of three individual duplicate experiments.
Experimental conditions for the antiproliferative inhibition were that HT 29 cells were incubated with rat Alk-Smase at different doses for 18 h. The cell proliferation rates were measured by WST reagent.
as §1, with “L-glutamine” for “L-glutamine,”, “Mean±SD” for “Mean± SD”

Cos-7 cells = experiment: Alk-Smase activity of transfected cells (cell lysate and medium); type: cell-based
Procedure: Cos 7 cells are transfected with either the wild type of Alk-Smase cDNA (sequence 21-1397 of ID No 5, reading frame) which encodes Seq ID No 4, or transfected with the Alk-Smase cDNA sequence from 21-1285 (C-truncated), which encodes a 415 amino acid sequence (Seq ID No 6). After transfection, the Alk-Smase activity in the medium and in the cell lysate was determined.
pCMV-sports6-Smase is transfected into mammalian Cos-7 cells. To transfect the cells with pCMV-sports6-Smase 4×10^5 Cos-7 cells are seeded in a 25 cm^2 flask in 4 ml of Dulbecco's modified Eagle's medium with 10% heat inactivated fetal calf serum and 2 mM Glutamine.
The cells are incubated until 90% confluent.
Cells are then transfected with 5 microgram pCMV-sports6-Smase and 16 microgram lipofectamine 2000™ in each flask followed by incubation for 48 h.
Untransfected cells are exposed to lipofectamine and treated the same as above.
At the end of the incubation, medium is collected and cells are lysed by a 50 mM Tris-HCl buffer containing 1 mM PMSF, 2 mM EDTA, 0.5 mM Dtt, 10 microgram/ml leupeptin, 10 microgram/ml aprotinine and 10 mM TC.
Cells are kept on ice, e.g., for 10 minutes, and then sonicated for 10 sec.
After centrifugation at 12000 g for 10 minutes at 4° C., human Alk-Smase activity and protein concentrations were determined.
Cos-7 cells transfected with a mock-vector is used as a control.

[4] = Lysophospholipase test with 14C-palmitoyl labelled lysophosphatidylcholine, TLC separation; type: biochemical
Procedure: At present the most intriguing functional similarity between Alk-Smase and NPP is the earlier observation that NPP2 has lysophospholipase D activity (M Umezo-Gozo et al J Cell Biol 2002; 158:227-33). To determine whether Alk-Smase also has lysophospholipase D activity, a trace amount of ^14C-palmitoyl labelled 1palmitoyl-lysosphosphatidylcholine was incubated with Alk-Smase using the optimal incubation conditions previously described (R D Duan and Å Nilsson Methods Enzymol 2000; 311:276-86). Lipids were then extracted according to known methods (Bligh and Dyer J Biochem Physiol 1959; 37:911-917), and separated on silica gel G plates that were developed in chloroform:methanol:water:acetic acid 25:20:0.3:3. The silica gel separates lysophosphatidylcholine and lysophosphatidic acid that are formed if there is a lysophospholipase D and monoglyceride formed by lysophospholipase C. […] It is therefore further disclosed herein that Alk-Smase may also influence cellular functions by removing lysophosphatidylcholine which can then not be converted to lysophosphatidic acid. Lysophosphatidic acid is a metabolite that stimulates growth of colon tumour cells. Our earlier studies have shown that Alk-Smase is not a general phosphlipase C since it has low activity against phosphatidylcholine (RD Duan, A Nilsson Methods Enzymol 2000; 311:276-86).

[5] = Characterisation of Alk-Smase: sphingomyelin hydrolysis (pH dependence, hydrolytic capacity); conditions: for hydrolytic capacity (Vmax, Lineweaver-Burk plot): sphingomyelin hydrolysed: by 1 mg of the enzyme in one hour
Procedure: To distinguish whether the enzyme was different from the Mg dependent neutral Smase, activity at pH 7.5 in the presence of 4 mM Mg2+ in comparison wit pH 8.5 in the presence of 2 mM EDTA was assayed.

Molecule: C[C@H](CCC(=O)NCCC[N+](C)(C)CCCS(=O)(=O)[O-])[C@H]1CC[C@H]2[C@@H]3[C@H](O)C[C@@H]4C[C@H](O)CC[C@]4(C)[C@H]3C[C@H](O)[C@]12C [CHAPS]
- effect on TC stimulation of Alk-Smase (human Alk-Smase [1]): blocked the stimulatory effect of TC
- effect on Alk-Smase activity (human Alk-Smase [1]; very low concentration (0.025 mM)): only slightly increased the activity

- effect of increasing concentrations of divalent cation on Alk-Smase activity (human Alk-Smase [2]): slightly increased
Molecule: [Ca+2] [Ca2^+]

- inhibition of Alk-Smase by EDTA (human Alk-Smase [1]): not inhibited
Molecule: O=C(O)CN(CCN(CC(=O)O)CC(=O)O)CC(=O)O [EDTA]
- reversal of the Zn2+ inhibition of Alk-Smase (human Alk-Smase [1]; 2 mM EDTA): Most of the inhibitory effect of Zn2+ was reversed

- effect of increasing concentrations of divalent cation on Alk-Smase activity (human Alk-Smase [2]): slightly increased
Molecule: [Mg+2] [Mg]

- maximal stimulating effect of bile salt on human Alk-Smase (human Alk-Smase [1]; maximum at the CMC of each bile salt): far more effective than other bile salts
Molecule: C[C@H](CCC(=O)NCCS(=O)(=O)O)[C@H]1CC[C@H]2[C@@H]3[C@H](O)C[C@@H]4C[C@H](O)CC[C@]4(C)[C@H]3CC[C@]12C [TCDC, taurochenodeoxycholate]

- IC50 (human Alk-Smase [1]; read-out: concentration giving 50% inhibition of Alk-Smase activity): 15 µM
Molecule: [Zn+2] [Zn2^+]

Molecule: N[C@@H](CCC(=O)N[C@@H](CS)C(=O)NCC(=O)O)C(=O)O [glutathione]
- reduction of Alk-Smase activity (human Alk-Smase [1]; 7.5 mM glutathione, reduced form): 1%
- effect on Alk-Smase activity (in words) (human Alk-Smase [1]; reduced form of glutathione): only slightly reduced
- reduction of neutral Smase activity (bacterial neutral Smase; 7.5 mM glutathione): 98%
- concentration above which neutral Smase activity is sharply abolished (bacterial neutral Smase): higher than 5 mM

- effect on human Alk-Smase activity (human Alk-Smase [1]; in the presence or absence of TC (10 mM)): strongly inhibits
Molecule: Triton X 100

- formation of lysophosphatidic acid (lysophospholipase D activity) [4]: not demonstrated
- activity at pH 8.5 with 2 mM EDTA compared with pH 7.5 with 4 mM Mg2+ [5]: significantly higher
- activity at pH 7.5 relative to maximal activity ([5]; pH 7.5 versus pH 8.5): about 68%
B1: human Alk-Smase: human intestinal alkaline sphingomyelinase, 458 amino acid protein purified from small intestinal content (protein, listed as Homo sapiens)
chain: MRGPAVLLTVALATLLAPGAGAPVQSQGSQNKLLLVSFDGFRWNYDQDVDTPNLDAMARDGVKARYMTPAFVTMTSPCHFTLVTGKYIENHGVVHNMYYNTTSKVKLPYHATLGIQRWWDNGSVPIWITAQRQGLRAGSFFYPGGNVTYQGVAVTRSRKEGIAHNYKNETEWRANIDTVMAWFTEEDLDLVTLYFGEPDSTGHRYGPESPERREMVRQVDRTVGYLRESIARNHLTDRLNLIITSDHGMTTVDKRAGDLVEFHKFPNFTFRDIEFELLDYGPNGMLLPKEGRLEKVYDALKDAHPKLHVYKKEAFPEAFHYANNPRVTPLLMYSDLGYVIHGRINVQFNNGEHGFDNKDMDMKTIFRAVGPSFRAGLEVEPFESVHVYELMCRLLGIVPEANDGHLATLLPMLHTESALPPDALLVADGPCLPSLSQAKGCMPLSPAAPTPAWLLWCW
- effect on proliferation / cell growth of HT29 cells [3]: inhibit proliferation
- effect on DNA synthesis of HT-29 cells [3]: decreased DNA synthesis
- increase of human Alk-Smase activity in the medium (Cos-7 cells; Cos-7 cells transfected with pCMV-sports6-Smase, 48 h): 5 fold
- lysophosphatidylcholine degraded to 14C-monoglyceride ([4]; in one hour, optimal incubation conditions): 80%
- hydrolytic capacity (Vmax, Lineweaver-Burk plot): sphingomyelin hydrolysed [5]: 11 mmol
- hydrolytic capacity (Vmax, Lineweaver-Burk plot): sphingomyelin hydrolysed ([5]; listed as Alk-Smase): about 11 mmole

B2: amino acid 1-415: C-truncated human Alk-Smase, 415 amino acid sequence encoded by cDNA 21-1285 (protein, listed as Homo sapiens)
chain: MRGPAVLLTVALATLLAPGAGAPVQSQGSQNKLLLVSFDGFRWNYDQDVDTPNLDAMARDGVKARYMTPAFVTMTSPCHFTLVTGKYIENHGVVHNMYYNTTSKVKLPYHATLGIQRWWDNGSVPIWITAQRQGLRAGSFFYPGGNVTYQGVAVTRSRKEGIAHNYKNETEWRANIDTVMAWFTEEDLDLVTLYFGEPDSTGHRYGPESPERREMVRQVDRTVGYLRESIARNHLTDRLNLIITSDHGMTTVDKRAGDLVEFHKFPNFTFRDIEFELLDYGPNGMLLPKEGRLEKVYDALKDAHPKLHVYKKEAFPEAFHYANNPRVTPLLMYSDLGYVIHGRINVQFNNGEHGFDNKDMDMKTIFRAVGPSFRAGLEVEPFESVHVYELMCRLLGIVPEANDGHLATLLPMLHT
- Alk-Smase activity produced, C-truncated versus full sequence cDNA (Cos-7 cells; transfected cells, FIG. 13): higher

B3: rat Alk-Smase: purified rat intestinal alkaline sphingomyelinase (protein, UniProt Q5EZ72 22-439, looked up)
Ectonucleotide …: GPVQRQQQHKLLLVSFDGFRWNYDQDVETPNLDSMAQEGVKARYMTPAFVTMTSPCHFTLVTGKYIENHGVVHNMFYNTTNKVRLPYHATLGIQRWWDNGSIPIWITAQRQGLKTGSFFYPGGNVTYQGEAVTMSRKEGVLHNYKNETEWRANVDTVMKWFTEEDVSLVTLYFGEPDSTGHKYGPESQERKDMVKQVDRTVGYLRDSIKRHHLTDSLNLIITSDHGMTTVNKKASDLVEFHKFPNFTFRDIEFELLDYGPNGMLIPKEGMLEKVYSVLKDAHPRLHVYKKEDFPKTFHYANNPRITSLLMYSDLGYVIHGRVNVQFNSGEHGFDNQDMDMKTIFRAVGPSFKAGLEVEPFESVHVYELMCQLLGIVPEPNDGHPGVLQPMLRSGSPLSRQHHLVVVLMGILTGLAKVV
- effect on proliferation / cell growth of HT29 cells [3]: dose-dependently inhibited cell growth
- effect on proliferation / cell growth of HT29 cells ([3]; listed as rat alkaline Smase): inhibit proliferation
- effect on DNA synthesis of HT-29 cells [3]: decreased DNA synthesis
